Experimental data: ChEMBL document CHEMBL4251687, “Acyl Sulfonamides NaV1.7 Blockers Useful for the Treatment of Pain” (ACS Med Chem Lett, 2018)
pIC50: −log10 of the molar value.

Legend:
Format in all cases: cell-based
[1] = target: T1, Sodium channel protein type 9 subunit alpha (Homo sapiens, UniProt Q15858); test: Displacement of [3H]-labelled radioligand from human Nav1.7 expressed in HEK293 cells measured after 24 hrs by liquid scintillation counting method
[2] = target: T1, Sodium channel protein type 9 subunit alpha; test: Inhibition of Nav1.7 (unknown origin) expressed in HEK293 cells at -60 mV holding potential measured after 600 secs by patch clamp method
[3] = target: Sodium channel protein type 5 subunit alpha (Homo sapiens, UniProt Q14524); test: Inhibition of Nav1.5 (unknown origin) expressed in HEK293 cells at -40 mV holding potential measured after 600 secs by patch clamp method
Chain of Sodium channel protein type 5 subunit alpha (Q14524 whole entry): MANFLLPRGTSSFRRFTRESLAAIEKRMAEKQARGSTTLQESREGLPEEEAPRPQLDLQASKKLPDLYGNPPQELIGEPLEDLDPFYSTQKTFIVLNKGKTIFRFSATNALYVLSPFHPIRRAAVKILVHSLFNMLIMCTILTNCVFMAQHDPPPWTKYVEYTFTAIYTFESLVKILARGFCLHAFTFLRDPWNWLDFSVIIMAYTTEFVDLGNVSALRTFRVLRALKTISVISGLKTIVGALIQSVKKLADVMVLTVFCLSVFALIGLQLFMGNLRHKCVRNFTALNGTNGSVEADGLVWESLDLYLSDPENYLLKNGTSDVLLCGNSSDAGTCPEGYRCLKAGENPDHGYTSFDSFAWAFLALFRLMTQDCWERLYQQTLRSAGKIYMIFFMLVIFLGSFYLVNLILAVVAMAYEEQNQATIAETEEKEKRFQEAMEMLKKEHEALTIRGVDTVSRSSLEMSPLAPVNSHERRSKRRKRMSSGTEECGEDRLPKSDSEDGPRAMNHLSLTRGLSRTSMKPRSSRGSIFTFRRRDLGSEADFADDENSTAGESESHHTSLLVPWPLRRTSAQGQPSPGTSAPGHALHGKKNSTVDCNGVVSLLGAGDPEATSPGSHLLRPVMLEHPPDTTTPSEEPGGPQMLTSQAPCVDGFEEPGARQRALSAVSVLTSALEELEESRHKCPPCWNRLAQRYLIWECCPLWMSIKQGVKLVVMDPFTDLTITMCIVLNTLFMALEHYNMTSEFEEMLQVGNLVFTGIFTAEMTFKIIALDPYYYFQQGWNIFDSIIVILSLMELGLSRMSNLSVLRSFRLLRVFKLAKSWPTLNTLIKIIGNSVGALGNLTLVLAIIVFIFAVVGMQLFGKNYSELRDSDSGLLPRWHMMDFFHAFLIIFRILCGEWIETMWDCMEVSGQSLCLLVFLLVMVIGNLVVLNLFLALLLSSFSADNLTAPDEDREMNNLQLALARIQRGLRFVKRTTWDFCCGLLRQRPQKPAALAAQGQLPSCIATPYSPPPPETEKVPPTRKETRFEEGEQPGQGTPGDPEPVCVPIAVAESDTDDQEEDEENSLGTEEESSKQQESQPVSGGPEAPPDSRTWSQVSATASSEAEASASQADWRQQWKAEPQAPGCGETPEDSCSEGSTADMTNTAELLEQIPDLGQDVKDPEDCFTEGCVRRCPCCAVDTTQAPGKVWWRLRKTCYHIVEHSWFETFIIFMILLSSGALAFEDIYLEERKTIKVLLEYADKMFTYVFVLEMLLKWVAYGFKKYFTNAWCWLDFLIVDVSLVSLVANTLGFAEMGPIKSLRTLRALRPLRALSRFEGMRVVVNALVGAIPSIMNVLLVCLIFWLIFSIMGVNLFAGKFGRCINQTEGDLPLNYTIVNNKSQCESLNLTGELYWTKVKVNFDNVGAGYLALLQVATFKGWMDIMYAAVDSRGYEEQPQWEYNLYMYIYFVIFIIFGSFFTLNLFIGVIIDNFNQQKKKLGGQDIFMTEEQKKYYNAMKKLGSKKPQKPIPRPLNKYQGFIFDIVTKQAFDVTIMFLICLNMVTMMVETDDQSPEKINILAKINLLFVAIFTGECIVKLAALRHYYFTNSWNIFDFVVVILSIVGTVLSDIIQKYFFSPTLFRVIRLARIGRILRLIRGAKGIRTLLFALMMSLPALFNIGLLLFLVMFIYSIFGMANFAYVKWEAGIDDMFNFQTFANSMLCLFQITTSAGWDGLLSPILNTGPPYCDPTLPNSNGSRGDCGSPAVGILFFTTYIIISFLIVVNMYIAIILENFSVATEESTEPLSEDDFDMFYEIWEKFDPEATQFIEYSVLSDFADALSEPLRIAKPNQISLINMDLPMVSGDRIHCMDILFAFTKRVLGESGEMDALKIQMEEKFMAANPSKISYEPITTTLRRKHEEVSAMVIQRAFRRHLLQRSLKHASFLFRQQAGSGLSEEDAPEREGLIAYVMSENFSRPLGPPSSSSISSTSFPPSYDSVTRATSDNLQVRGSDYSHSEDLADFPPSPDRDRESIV

T1 sequence (Q15858 whole entry): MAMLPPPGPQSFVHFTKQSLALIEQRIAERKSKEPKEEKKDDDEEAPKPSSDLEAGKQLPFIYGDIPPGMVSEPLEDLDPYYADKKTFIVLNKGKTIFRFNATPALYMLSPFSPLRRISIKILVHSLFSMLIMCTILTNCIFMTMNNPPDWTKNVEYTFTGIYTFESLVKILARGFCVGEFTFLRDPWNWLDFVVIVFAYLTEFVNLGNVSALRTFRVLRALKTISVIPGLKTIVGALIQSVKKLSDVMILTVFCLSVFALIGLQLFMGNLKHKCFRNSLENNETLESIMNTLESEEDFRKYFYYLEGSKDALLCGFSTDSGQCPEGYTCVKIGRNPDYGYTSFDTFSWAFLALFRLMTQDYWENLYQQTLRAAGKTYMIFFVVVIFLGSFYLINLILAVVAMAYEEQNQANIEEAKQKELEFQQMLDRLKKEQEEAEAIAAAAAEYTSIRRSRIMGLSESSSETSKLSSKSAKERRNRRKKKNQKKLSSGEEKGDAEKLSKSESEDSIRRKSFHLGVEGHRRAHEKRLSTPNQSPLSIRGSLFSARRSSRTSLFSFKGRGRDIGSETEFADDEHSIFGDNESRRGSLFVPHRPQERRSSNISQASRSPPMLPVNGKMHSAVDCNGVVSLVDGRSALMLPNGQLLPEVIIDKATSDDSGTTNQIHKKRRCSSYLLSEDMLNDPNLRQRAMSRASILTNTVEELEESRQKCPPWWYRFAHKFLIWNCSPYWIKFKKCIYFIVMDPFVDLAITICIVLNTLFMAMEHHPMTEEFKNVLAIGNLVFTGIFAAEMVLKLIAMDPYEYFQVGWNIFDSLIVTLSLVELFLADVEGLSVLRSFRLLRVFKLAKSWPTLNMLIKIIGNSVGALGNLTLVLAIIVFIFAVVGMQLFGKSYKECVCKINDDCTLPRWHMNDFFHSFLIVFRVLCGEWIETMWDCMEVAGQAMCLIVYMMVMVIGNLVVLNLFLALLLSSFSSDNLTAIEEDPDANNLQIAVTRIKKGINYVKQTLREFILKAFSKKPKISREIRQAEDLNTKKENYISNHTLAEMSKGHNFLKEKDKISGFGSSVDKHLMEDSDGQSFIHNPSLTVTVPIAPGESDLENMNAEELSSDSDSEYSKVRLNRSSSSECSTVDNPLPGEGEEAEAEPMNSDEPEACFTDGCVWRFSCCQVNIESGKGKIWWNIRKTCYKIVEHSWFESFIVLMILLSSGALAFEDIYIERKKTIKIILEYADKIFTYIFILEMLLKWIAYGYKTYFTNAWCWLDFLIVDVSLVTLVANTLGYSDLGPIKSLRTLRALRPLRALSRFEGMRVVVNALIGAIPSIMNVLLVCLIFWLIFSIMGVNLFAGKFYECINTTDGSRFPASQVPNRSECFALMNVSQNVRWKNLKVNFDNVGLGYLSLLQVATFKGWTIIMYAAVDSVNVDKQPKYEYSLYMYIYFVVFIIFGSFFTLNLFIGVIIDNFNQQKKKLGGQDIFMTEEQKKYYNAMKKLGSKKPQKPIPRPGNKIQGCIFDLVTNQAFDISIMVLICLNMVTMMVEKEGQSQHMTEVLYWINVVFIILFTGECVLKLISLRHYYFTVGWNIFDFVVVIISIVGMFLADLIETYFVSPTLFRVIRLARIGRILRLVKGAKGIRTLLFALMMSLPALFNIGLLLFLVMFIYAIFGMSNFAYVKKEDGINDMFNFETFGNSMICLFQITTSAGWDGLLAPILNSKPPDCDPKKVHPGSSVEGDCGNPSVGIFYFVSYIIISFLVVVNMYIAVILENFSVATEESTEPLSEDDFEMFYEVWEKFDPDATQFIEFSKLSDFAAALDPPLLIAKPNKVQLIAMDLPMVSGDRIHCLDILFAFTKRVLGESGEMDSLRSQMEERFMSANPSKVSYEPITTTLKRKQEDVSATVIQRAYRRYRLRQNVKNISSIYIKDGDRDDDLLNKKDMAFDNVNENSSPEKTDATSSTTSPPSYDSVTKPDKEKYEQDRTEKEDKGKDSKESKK

**Q.** How did the pIC50 [1] turn out when `Cn1cc(-c2ccc(C(F)F)cc2)c2cc(F)c(C(=O)NS(=O)(=O)C3CC3)cc21` was run?
**A.** 7.34

**Q.** How did the pIC50 [2] turn out when `CC(C)COc1ncc(-c2cn(C)c3cc(C(=O)NS(C)(=O)=O)ccc23)cc1Cl` was run?
**A.** 7.05

**Q.** How did the pIC50 [3] turn out when `Cn1cc(-c2ccc(C(F)(F)F)cc2)c2cc(F)c(C(=O)NS(C)(=O)=O)cc21` was run?
**A.** 4.52
